Experimental data: the Kinase Knowledgebase extract (Sharma et al. 2016)

What was measured:
MAPK14 (human) = MAPK14 (human) (UniProt Q16539); assay: Inhibition of LPS-Induced TNF-alpha Production in Human Peripheral Blood Mononuclear Cell; settings: pbmc
MAPK14 = MAPK14 (UniProt Q16539); assay: Inhibition of MAPK14 Kinase Activity
MAPK14 (mice) = assay: Inhibition of LPS-Induced TNF-alpha Production in Mice; settings: dose or concentration not given here

Sequence of MAPK14 (human) (Q16539 whole entry, looked up): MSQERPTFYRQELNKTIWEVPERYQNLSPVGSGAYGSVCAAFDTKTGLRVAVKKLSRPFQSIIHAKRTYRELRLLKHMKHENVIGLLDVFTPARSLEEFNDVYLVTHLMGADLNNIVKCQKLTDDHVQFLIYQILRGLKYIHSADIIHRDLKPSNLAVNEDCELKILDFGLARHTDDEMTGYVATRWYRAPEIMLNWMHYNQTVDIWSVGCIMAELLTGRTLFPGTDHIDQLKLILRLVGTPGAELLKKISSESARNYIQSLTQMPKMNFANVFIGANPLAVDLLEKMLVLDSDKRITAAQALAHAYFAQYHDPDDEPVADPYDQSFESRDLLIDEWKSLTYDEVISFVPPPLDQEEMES
Sequence of MAPK14 (Q16539 whole entry, looked up): as above

| IC50 (MAPK14 (human)) [nM] | IC50 (MAPK14) [nM] | Structure (SMILES) | inhibition (MAPK14 (mice)) [%] |
| --- | --- | --- | --- |
| 2 | 1 | C[C@H](Nc1cc(-c2c(-c3ccc(F)cc3)nc3nc(N)ccn23)ccn1)c1ccccc1 |  |
| 40 |  | Nc1ccn2c(-c3ccncc3)c(-c3ccc(F)cc3)nc2n1 |  |
| 2.3 |  | C[C@@H](Nc1nccc(-c2c(-c3ccccc3)nc3nc(N)ccn23)n1)c1ccccc1 |  |
| 60 |  | Fc1ccc(-c2[nH]c3ccc4[nH]c(Cc5ccccc5)nc4c3c2-c2ccncc2)cc1 |  |
| 0.6 |  | C[C@H](Nc1nccc(-c2c(-c3ccccc3)nc3nc(N)ccn23)n1)c1ccccc1 | 100 |
| 0.5 |  | COC[C@H](C)Nc1cc(-c2c(-c3ccccc3)nc3nc(N)ccn23)ccn1 |  |
| 3 |  | Nc1ccn2c(-c3ccnc(N[C@H]4CCCc5ccccc54)c3)c(-c3ccccc3)nc2n1 |  |
